Publication PMC11850406, “Large-scale screening of HIV-1 T-cell epitopes restricted by 12 prevalent HLA-A allotypes in Northeast Asia and universal detection of HIV-1-specific CD8^+ T cells” (Frontiers in Microbiology, 2025)
Read-outs that look alike come from different tables or passages of the source. Where no end group is shown, it is not given here.

How the values were obtained:
HLA-A1101 = molecular target: T1, HLA-A1101 (Homo sapiens, UniProt P04439, A114D/D185E/E176A/F33Y/L180Q/S129P/T187R); test: cell-based; assay type: binding; conditions: for inhibition at 5 µM / inhibition at 15 µM: 24 h; for inhibition at 5 µM: read-out: 5-μM inhibition (%); for inhibition at 15 µM: read-out: 15-μM inhibition (%)
T1 construct: expressed in transfected cells; host or cells: HMy2.CIR

HLA-A3101 = molecular target: T2, HLA-A3101 (Homo sapiens, UniProt P04439, A270S/D185E/E176V/E277Q/F33T/G231S/G80R/H175R/I121M/I218V/I322F/K168Q/L300P/L318F/M331R/P217A/Q94H/R138Q/T323A/T345S/T97I/V358M); test: Peptide competitive binding assay, HMy2.CIR cells expressing A3101; conditions: for inhibition at 5 µM / 5-μM inhibition (%): peptide 5 μM vs FITC-labeled reference peptide 300 nM; for inhibition at 5 µM / inhibition at 15 µM / 5-μM inhibition (%) / 15-μM inhibition (%): 24 h, 4°C, flow cytometry; for inhibition at 15 µM / 15-μM inhibition (%): peptide 15 μM vs FITC-labeled reference peptide 300 nM; for IC50: read-out: Affinity
T2 construct: expressed in transfected cells; host or cells: HMy2.CIR

HLA-A3303 = HLA-A3303 (Homo sapiens, UniProt P04439, A270S/D185E/E176V/E277Q/E87N/F33T/G231S/H175R/I121M/I218V/I322F/K168Q/L300P/L318F/M331R/P217A/Q86R/Q94H/R138Q/T323A/T345S/T97I/V358M); test: Peptide competitive binding assay, HMy2.CIR cells expressing A3303; conditions: for inhibition at 5 µM: peptide 5 μM vs FITC-labeled reference peptide 300 nM; for inhibition at 5 µM / inhibition at 15 µM: 24 h, 4°C, flow cytometry; for inhibition at 15 µM: peptide 15 μM vs FITC-labeled reference peptide 300 nM; for IC50: read-out: Affinity
HLA-A1102 = HLA-A1102 (Homo sapiens, UniProt P04439, A114D/D185E/E176A/E43K/F33Y/L180Q/S129P/T187R); test: cell-based; assay type: binding; conditions: for inhibition at 5 µM / inhibition at 15 µM / 5-μM inhibition (%) / 15-μM inhibition (%): 24 h; for inhibition at 5 µM: read-out: 5-μM inhibition (%); for inhibition at 15 µM: read-out: 15-μM inhibition (%)
HLA-A3001 = molecular target: T3, HLA-A3001 (Homo sapiens, UniProt P04439, D140H/D185E/E176W/F33S/G80R/H175R/K168Q/R138E/R41S); test: cell-based; assay type: binding; conditions: for inhibition at 5 µM / inhibition at 15 µM / 5-μM inhibition (%) / 15-μM inhibition (%): A3001, 24 h, 4°C, flow cytometry; for inhibition at 5 µM / 5-μM inhibition (%): peptide 5 μM vs FITC-labeled reference peptide 300 nM; for inhibition at 5 µM: read-out: 5-μM inhibition (%); for inhibition at 15 µM / 15-μM inhibition (%): peptide 15 μM vs FITC-labeled reference peptide 300 nM; for inhibition at 15 µM: read-out: 15-μM inhibition (%)
T3 construct: expressed in transfected cells; host or cells: HMy2.CIR

[1] = A1102, peptide 5 μM vs FITC-labeled reference peptide 300 nM, 4°C, flow cytometry
[2] = A1102, peptide 15 μM vs FITC-labeled reference peptide 300 nM, 4°C, flow cytometry
[3] = A1101, peptide 5 μM vs FITC-labeled reference peptide 300 nM, 4°C, flow cytometry
[4] = A1101, peptide 15 μM vs FITC-labeled reference peptide 300 nM, 4°C, flow cytometry
[5] = A3303, class from inhibition at 5 and 15 μM of FITC-labeled reference peptide binding
[6] = A3101, class from inhibition at 5 and 15 μM of FITC-labeled reference peptide binding

CC[C@H](C)[C@H](NC(=O)[C@H](Cc1ccccc1)NC(=O)[C@@H](NC(=O)[C@H](C)N)C(C)C)C(=O)N[C@@H](Cc1c[nH]cn1)C(=O)N[C@@H](CC(N)=O)C(=O)N[C@@H](Cc1ccccc1)C(=O)N[C@@H](CCCCN)C(=O)N[C@@H](CCCNC(=N)N)C(=O)O [Peptide P41]
IC50 (HLA-A1101): < 5 µM
inhibition at 5 µM (HLA-A1101): 83.8%
inhibition at 15 µM (HLA-A1101): 86.8%
inhibition at 5 µM (HLA-A3101; A3101): 63.4%
inhibition at 15 µM (HLA-A3101; A3101): 96%
IC50 (HLA-A3101): < 5 µM
inhibition at 5 µM (HLA-A3303; A3303): 71%
inhibition at 15 µM (HLA-A3303; A3303): 89.8%
IC50 (HLA-A3303): < 5 µM
inhibition at 5 µM (HLA-A1102): 1.73%
inhibition at 15 µM (HLA-A1102): 21.5%

AAGTGSSSK [Peptide P86]
5-μM inhibition (%) (HLA-A1102; [1]): 1.04%
15-μM inhibition (%) (HLA-A1102; [2]): 3.12%

ASRELERFA [Peptide P90]
IC50 (HLA-A3001): 5 to 15 µM
inhibition at 5 µM (HLA-A3001): 17.7%
inhibition at 15 µM (HLA-A3001): 58%

ATLWCVHQR [Peptide P34]
IC50 (HLA-A1101; A1101, class from inhibition at 5 and 15 μM of FITC-labeled reference peptide binding, read-out: Affinity): 5 to 15 µM
inhibition at 5 µM (HLA-A1101; [3]): 44%
inhibition at 15 µM (HLA-A1101; [4]): 77.8%
IC50 (HLA-A3303; [5]): < 5 µM
inhibition at 5 µM (HLA-A3303; A3303): 63.8%
inhibition at 15 µM (HLA-A3303; A3303): 77.2%
inhibition at 5 µM (HLA-A1102; [1]): 3.12%
inhibition at 15 µM (HLA-A1102; [2]): 13.8%

FVNTPPLVK [Peptide P44]
IC50 (HLA-A1101): < 5 µM
inhibition at 5 µM (HLA-A1101; [3]): 84.5%
inhibition at 15 µM (HLA-A1101; [4]): 92.7%
inhibition at 5 µM (HLA-A1102; [1]): 6.01%
inhibition at 15 µM (HLA-A1102; [2]): 26.1%

IQNFRVYYR [Peptide P112]
inhibition at 5 µM (HLA-A3101; A3101): 20.1%
inhibition at 15 µM (HLA-A3101; A3101): 25.7%
inhibition at 5 µM (HLA-A3303; A3303): 48.7%
inhibition at 15 µM (HLA-A3303; A3303): 55.1%
IC50 (HLA-A3303): 5 to 15 µM

KAREFSSER [Peptide P100]
IC50 (HLA-A3101; [6]): 5 to 15 µM
inhibition at 5 µM (HLA-A3101; A3101): 42.9%
inhibition at 15 µM (HLA-A3101; A3101): 95.1%

KVLKQVTEK [Peptide P87]
5-μM inhibition (%) (HLA-A1102; [1]): 5.66%
15-μM inhibition (%) (HLA-A1102; [2]): 16.76%

KVVPRRKAK [Peptide P93]
5-μM inhibition (%) (HLA-A3001): 16.92%
15-μM inhibition (%) (HLA-A3001): 41.10%

KVYLSWVPA [Peptide P94]
5-μM inhibition (%) (HLA-A3001): 27.40%
15-μM inhibition (%) (HLA-A3001): 45.93%

MAHQPLSPR [Peptide P111]
IC50 (HLA-A3303; [5]): < 5 µM
inhibition at 5 µM (HLA-A3303; A3303): 78.2%
inhibition at 15 µM (HLA-A3303; A3303): 89.2%
inhibition at 5 µM (HLA-A1102; [1]): 4.16%
inhibition at 15 µM (HLA-A1102; [2]): 20.6%

MTKILEPFR [Peptide P102]
inhibition at 5 µM (HLA-A3101; A3101): 60.2%
inhibition at 15 µM (HLA-A3101; A3101): 88.3%
IC50 (HLA-A3101): < 5 µM
inhibition at 5 µM (HLA-A3303; A3303): 69.5%
inhibition at 15 µM (HLA-A3303; A3303): 70%
IC50 (HLA-A3303): < 5 µM

MVHQPISPR [Peptide P103]
inhibition at 5 µM (HLA-A3101; A3101): 65.4%
inhibition at 15 µM (HLA-A3101; A3101): 79.2%
IC50 (HLA-A3101): < 5 µM
inhibition at 5 µM (HLA-A3303; A3303): 70.2%
inhibition at 15 µM (HLA-A3303; A3303): 99.5%
IC50 (HLA-A3303): < 5 µM
inhibition at 5 µM (HLA-A1102; [1]): 3.81%
inhibition at 15 µM (HLA-A1102; [2]): 13.4%

NLKTGKYAR [Peptide P101]
5-μM inhibition (%) (HLA-A3101; A3101): 32.90%
15-μM inhibition (%) (HLA-A3101; A3101): 41.10%

RAKRRVVER [Peptide P98]
IC50 (HLA-A3101; [6]): 5 to 15 µM
inhibition at 5 µM (HLA-A3101; A3101): 47.9%
inhibition at 15 µM (HLA-A3101; A3101): 82%

RANSPTSRK [Peptide P88]
5-μM inhibition (%) (HLA-A1102; [1]): 0.00%
15-μM inhibition (%) (HLA-A1102; [2]): 0.35%

RIKCFNCGR [Peptide P96]
5-μM inhibition (%) (HLA-A3101; A3101): 0.00%
15-μM inhibition (%) (HLA-A3101; A3101): 0.00%

RLRGFILVA [Peptide P92]
5-μM inhibition (%) (HLA-A3001): 18.53%
15-μM inhibition (%) (HLA-A3001): 39.48%

RLRPGGRKK [Peptide P89]
5-μM inhibition (%) (HLA-A3001): 27.40%
15-μM inhibition (%) (HLA-A3001): 39.48%

RSNFKGSKR [Peptide P97]
inhibition at 5 µM (HLA-A3101; A3101): 66.6%
inhibition at 15 µM (HLA-A3101; A3101): 92.9%
IC50 (HLA-A3101): < 5 µM

RVRQGYSPL [Peptide P91]
IC50 (HLA-A3001): < 5 µM
inhibition at 5 µM (HLA-A3001): 92.4%
inhibition at 15 µM (HLA-A3001): 100%

SILDIRQGPK [Peptide P33]
IC50 (HLA-A1101): < 5 µM
inhibition at 5 µM (HLA-A1101; [3]): 83.2%
inhibition at 15 µM (HLA-A1101; [4]): 93.1%
IC50 (HLA-A1102): 5 to 15 µM
inhibition at 5 µM (HLA-A1102; [1]): 16.8%
inhibition at 15 µM (HLA-A1102; [2]): 50.6%

TSLPKQEQK [Peptide P31]
IC50 (HLA-A1101): < 5 µM
inhibition at 5 µM (HLA-A1101; [3]): 75.2%
inhibition at 15 µM (HLA-A1101; [4]): 86.5%
inhibition at 5 µM (HLA-A1102; [1]): 4.16%
inhibition at 15 µM (HLA-A1102; [2]): 18%

VTGIRKNYR [Peptide P99]
5-μM inhibition (%) (HLA-A3101; A3101): 0.00%
15-μM inhibition (%) (HLA-A3101; A3101): 15.00%
